Experimental data reported in article PMC8042910, “Adiponectin-mimetic novel nonapeptide rescues aberrant neuronal metabolic-associated memory deficits in Alzheimer’s disease” (Molecular Neurodegeneration, 2021).
Residues, ends and D or L forms follow the SMILES beside them.

Columns and labels:
[1] = test system: hippocampal pyramidal neuronal cells; assay: Golgi staining, dendritic complexity and spine density of hippocampal CA1 pyramidal neurons; type: in vivo, mouse; conditions: Adipo−/− and AβO mice
Text: In a separate cohort of studies, we performed Golgi staining and morphological analysis of hippocampal pyramidal neuronal cells and were investigated as accordingly our previous protocol.

AdipoR1/p-AMPK signaling = AdipoR1/p-AMPK signaling in in vitro AD models (immunoblot, ELISA, AMPK assay); type: cell-based, human; conditions: 10 μM, 12 h
Method: Human neuroblastoma SH-SY5Y cells were seeded (in 6-well culture plates for immunoblotting and in chamber slides for immunofluorescence) in DMEM (Dulbecco’s modified Eagle medium) containing 10% fetal bovine serum (FBS) and 1% antibiotics (penicillin-streptomycin) and incubated at 37 °C in humidified air containing 5% CO2. Once the cells reached 70–80% confluence, the cells were transfected using the pCAX vector containing the APPswe/ind gene using Lipofectamine 3000 (Life Technologies) according to the provider’s protocols. […]
SH-SY5Y (2×10^4/ml) cells used for ELISA and AMPK assays were cultured in 35-mm dishes in the presence of culture medium of DMEM containing FBS (10%) and antibiotics (1%) at 37°C in humidified air containing 5% CO2 to 70-75% confluences. […] Seventy-two hours after transfections, cells were treated with Os-pep (10 µM) for 12 h and cell lysates were collected and analyzed using ELISAs and immunoassays, as appropriate.
The AdipoR1 expressions were measured in the brain homogenates from APP/PS1 and Adipo-^/- mice and in lysates from APPswe/ind-overexpressed SH-SY5Y cells transfected with the AdipoR1 siRNA and treated Os-pep (10 µM) in vitro using the mouse and human AdipoR1 ELISA kits, accordingly to the provider’s instructions (MyBioSource). […]

p-PI3K/Akt/GSK3β (Ser 9) = assay: Downstream insulin signaling in mouse brain, immunoblot; type: in vivo; conditions: AβO-treated, APP/PS1 and Adipo−/− mice, 5 μg/g, i.p., alternating days for 45 days
Method: (§1) Os-pep was dissolved in double-deionized distilled water and then prepared in normal saline to obtain the final administered concentration. The AβO, APP/PS1, Adipo^−/− and WT mice were injected i.p. with Os-pep at a dosage of 5 μg/g on alternating days for 45 days. WT, Veh-injected transgenic-APP/PS1 and Adipo^−/− mice were injected with the same volume of double-deionized water and normal saline. The WT control and sham mice as well as the Veh-injected AβO, APP/PS1, Adipo^−/− and HFD mice received the same volume of double-deionized distilled water or normal saline.
The protein concentrations of the homogenates of mouse brain tissue and cell lysates in vitro were measured using a Bio-Rad protein assay kit (Bio-Rad Laboratories, Hercules, CA), and immunoblotting was performed as we previously described, using primary antibodies (detailed information described in the supplementary Table 1). Western blotting membranes have been cut prior to original western blot images and original western blot images are available at supplementary material.

[2] = test system: p-IRS-1 and p-PI3K/Akt/GSK3β (Ser 9) pathways; assay: Insulin resistance and downstream insulin signaling in APPswe/ind-overexpressing SH-SY5Y cells, immunoblot; type: cell-based, human; conditions: Os-pep 10 μM
Method: Human neuroblastoma SH-SY5Y cells were seeded (in 6-well culture plates for immunoblotting and in chamber slides for immunofluorescence) in DMEM (Dulbecco’s modified Eagle medium) containing 10% fetal bovine serum (FBS) and 1% antibiotics (penicillin-streptomycin) and incubated at 37 °C in humidified air containing 5% CO2. Once the cells reached 70–80% confluence, the cells were transfected using the pCAX vector containing the APPswe/ind gene using Lipofectamine 3000 (Life Technologies) according to the provider’s protocols. AdipoR1 siRNA (h) (SC-60123) and AMPK siRNA (h) (SC-45312) (Santa Cruz Biotechnology, Inc.) were used at a concentration of 10 μM per transfection and expressed for 72 h according to the manufacturer’s protocol (Santa Cruz Biotechnology, Inc.). A negative siRNA (Ambion, Thermo Fisher Scientific) was used as a control. Seventy-two hours after the transfections, the cells were exposed to Os-pep (10 μM) for 12 h and then subjected to immunoblotting and immunofluorescence analyses.
Human neuroblastoma SH-SY5Y cells were treated with 1 µM of insulin for 48 h to produce intrinsic insulin-resistant human neuroblastoma (SH-SY5YIR) cells. After 48 h, SH-SY5YIR cells were overexpressed with human APPswe/ind and subjected with AdipoR1 siRNA which further exposed to 10 nM insulin, Os-pep (10 µM) or compound C (10 µM) for 12 h, and then cell lysates were collected and proceeded accordingly for immunoblotting and ELISA.

mice = assay: Safety of chronic optimized dosage regimen in mice; type: in vivo, mouse; conditions: 5 μg/g, i.p.
Method: as §1
We monitored and weighed the mice three times per week to examine the effect of Os-pep dosage regimen (5 µg/g, i.p., on alternating days for 45 days) on the animals’ body weights. At the completion of the treatment, we calculated the average change in the body weight of the mice. At the completion of the treatments and behavioral experiments, blood samples were collected by cardiac puncture of the right atrium. […]

C[C@@H](O)[C@H](NC(=O)[C@@H]1CCCN1C(=O)CNC(=O)[C@H](CS)NC(=O)[C@@H]1CCCN1C(=O)CNC(=O)[C@H](CCC(N)=O)NC(=O)[C@@H](NC(=O)[C@@H](N)CS)[C@@H](C)O)C(=O)O [Os-pep] (H-CTQGPCGPT-OH; N-terminus and C-terminus assumed)
total dendritic length ([1]; 5 μg/g, i.p., alternating days for 45 days): significantly increased the total dendritic length
total number of spines and filopodia-like spines ([1]; hippocampal CA1): significantly increased the total number of spines and the number of filopodia-like spines
AdipoR1/AMPK signaling with AdipoR1 knockdown (AdipoR1/p-AMPK signaling; APPswe/ind SH-SY5Y with AdipoR1 siRNA, ELISA and AMPK assay): did not promote the stimulation of AdipoR1/AMPK signaling
neuronal AdipoR1/p-AMPK signaling (AdipoR1/p-AMPK signaling; AβO-treated and human APPswe/ind-overexpressing SH-SY5Y cells): significantly increased neuronal AdipoR1/p-AMPK signaling
p-PI3K/Akt/GSK3β (Ser 9) levels (p-PI3K/Akt/GSK3β (Ser 9)): reversed the reduction
p-IRS-1 Tyr 632 and p-PI3K/Akt/GSK3β (Ser 9) in insulin-resistant cells ([2]; APPswe/ind SH-SY5YIR (insulin 1 μM), 12 h): significantly activated
p-IRS-1 Ser636/312 with AdipoR1 knockdown ([2]; APPswe/ind-overexpressing SH-SY5Y, AdipoR1 siRNA): did not downregulate
p-IRS-1 Tyr 632 and p-PI3K/Akt/GSK3β (Ser 9) with AMPK knockdown ([2]; APPswe/ind-transfected SH-SY5Y, AMPK siRNA): did not upregulate
liver or kidney dysfunction (serum biochemical parameters) (mice; alternating days for 45 days, APP/PS1, HFD and Adipo−/− mice): did not induce liver or kidney dysfunction
undesirable effects of chronic Os-pep treatment alone (mice; on alternating days for 45 days, Os-pep alone): did not induce any undesirable effects
